Measurements reported in article PMC10382584, “Macrocyclization of linear molecules by deep learning to facilitate macrocyclic drug candidates discovery” (Nature Communications, 2023).
Several values for one entry are separate records, joined by “and”; a condition that tells them apart may be missing. Equal entries are not always repeated.

Legend:
[1] = test system: DSS-induced colitis mice; experiment: In vivo efficacy study, DSS-induced colitis model; design: species or system male BALB/c mice; conditions: for Body weight (Fig. 6a) / DAI score (Fig. 6b): individual mice
Method: Model mice were divided into four groups and eight mice were included in each group on day 8. […] Meanwhile, solvent was given intragastrically to the control group and model group. On day 15, the mice were sacrificed, and the length and weight of each colon were measured.
Body weight, the stool consistency, and the presence of blood in feces were recorded daily in the morning. […] The maximum score was 9, which was the sum of the scores. About 1-cm colon tissue, which is 0.5 cm away from the anal margin, was collected, and the ileocecal area was used for histopathological examination. After H&E staining, the tissues were scored under single-blind conditions to evaluate the levels of inflammation and tissue damage in the colons following the criteria proposed by ref. [62]. Statistical analyses were performed using SPSS v24.0.

[2] = In vivo PK study in mice;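 on all read-outs here: mice dosed intravenously or orally, three animals per time point, plasma drug levels quantified by LC-MS/MS, PK parameters derived by noncompartmental analysis in Phoenix WinNonLin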; conditions: for concentration at time point (concentration-time data, Supplementary Fig. 8): individual mice 1-3; for AUCinf / Cmax / T1/2 / Tmax: mice
Method: The mice were separately administered to a group of three mice per time point for intravenous (5 mg/kg) or oral administration (5 mg/kg). […] Then the samples were separated by centrifugation and analyzed by LC-MS/MS (XEVO TQ-S) to determine the plasma drug concentrations. The PK parameters were calculated using the noncompartment model with Phoenix WinNonLin v8.0. The animal experimental procedures were approved by the Medicine Research Ethics Committee of Hangzhou Leading Pharmatech Co., Ltd.

## Cc1cnc2nc1Nc1cccc(c1)COCC=CCOCc1cc(ccc1OCCN1CCCC1)N2 [Compound 3]
[1]; Compound 3 5 mg/kg, day 5, 5 mg/kg, in g (unit assumed)
  Body weight (Fig. 6a): 23 and 19.1 and 22 and 19.4 and 20.5 and 20.9 and 20.6 and 21.4
[1]; Compound 3 5 mg/kg, day 6, 5 mg/kg
  DAI score (Fig. 6b): 4 (2×) and 5 and 1 (2×) and 2 and 7 and 6
[1]; Compound 3 5 mg/kg, day 6, 5 mg/kg, in g (unit assumed)
  Body weight (Fig. 6a): 22.2 and 18.3 and 21.8 and 20.1 and 18.5 and 18.4 and 20.2 and 21.3
[1]; Compound 3 5 mg/kg, day 7, 5 mg/kg
  DAI score (Fig. 6b): 7 (3×) and 2 (2×) and 6 and 3 and 4
[1]; Compound 3 5 mg/kg, day 7, 5 mg/kg, in g (unit assumed)
  Body weight (Fig. 6a): 20.9 and 16.9 and 20.5 and 19.8 and 16.7 and 16.5 and 20.1 and 19.7
[1]; Compound 3 5 mg/kg, day 8, 5 mg/kg
  DAI score (Fig. 6b): 0 (3×) and 5 and 3 (2×) and 1 (2×)
[1]; Compound 3 5 mg/kg, day 8, 5 mg/kg, in g (unit assumed)
  Body weight (Fig. 6a): 20.9 and 15.8 and 22.3 and 21.2 and 16.4 and 21.3 and 21.8
[1]; Compound 3 5 mg/kg, day 9, 5 mg/kg
  DAI score (Fig. 6b): 1 and 0 (5×) and 2
[1]; Compound 3 5 mg/kg, day 9, 5 mg/kg, in g (unit assumed)
  Body weight (Fig. 6a): 20.2 and 15.8 and 22.7 and 22.9 and 16.5 and 21.9 and 22
[1]; Compound 3 5 mg/kg, day 10, 5 mg/kg
  DAI score (Fig. 6b): 1 (4×) and 2 (3×)
[1]; Compound 3 5 mg/kg, day 10, 5 mg/kg, in g (unit assumed)
  Body weight (Fig. 6a): 19.5 and 15.3 and 22.2 and 22.8 and 16.1 and 21.9 and 22.6
[1]; Compound 3 5 mg/kg, day 11
  DAI score (Fig. 6b): 0
[1]; Compound 3 5 mg/kg, day 11, 5 mg/kg
  Body weight (Fig. 6a): 20.1 and 15.7 and 22 (2×) and 22.9 and 16.7 and 22.8
[1]; Compound 3 5 mg/kg, day 12, 5 mg/kg
  DAI score (Fig. 6b): 0 (6×) and 1
[1]; Compound 3 5 mg/kg, day 12, 5 mg/kg, in g (unit assumed)
  Body weight (Fig. 6a): 21 and 16.6 and 22.3 and 23 and 17.2 and 22.1 and 22.9
[1]; Compound 3 5 mg/kg, day 13, 5 mg/kg, in g (unit assumed)
  Body weight (Fig. 6a): 21.7 and 17.7 and 21.8 and 23.1 and 18 and 22.3 and 22.6
[1]; Compound 3 5 mg/kg, day 14, 5 mg/kg
  Body weight (Fig. 6a): 21.5 and 17.4 and 22.3 and 23.4 and 19.2 and 22.4 (2×)
[1]; Compound 3 5 mg/kg, individual colon tissues (n = 7), 5 mg/kg
  HE staining score (Fig. 6d): 3 and 1 and 2
[1]; compound 3 5 mg/kg, Fedratinib 10 mg/kg
  symptoms in DSS-induced murine colitis: ameliorate the symptoms
[2]; iv 5 mg/kg, 0.5 h, 5 mg/kg
  concentration at time point (concentration-time data, Supplementary Fig. 8): 112.17 and 96.91 and 108.01
[2]; iv 5 mg/kg, 1 h, 5 mg/kg
  concentration at time point (concentration-time data, Supplementary Fig. 8): 33.98 and 41.85 and 29.29
[2]; iv 5 mg/kg, 2 h, 5 mg/kg
  concentration at time point (concentration-time data, Supplementary Fig. 8): 22.85 and 22.08 and 24.61
[2]; iv 5 mg/kg, 4 h, 5 mg/kg
  concentration at time point (concentration-time data, Supplementary Fig. 8): 23.46 and 31.4 and 25.29
[2]; iv 5 mg/kg, 8 h, 5 mg/kg
  concentration at time point (concentration-time data, Supplementary Fig. 8): 17.79 and 10.67 and 14.54
[2]; iv 5 mg/kg, 24 h, 5 mg/kg
  concentration at time point (concentration-time data, Supplementary Fig. 8): 2.18 and 0 (2×)
[2]; iv (5 mg/kg)
  AUCinf: 443.20 ng·h/mL
  Cmax: 351.23 ng/mL
  T1/2: 0.52 h
  Tmax: 0.083 h
[2]; po (5 mg/kg)
  AUCinf: 114.69 ng·h/mL
  Cmax: 6.64 ng/mL
  T1/2: 10.07 h
  Tmax: 4.00 h
[2]; po 5 mg/kg, 1 h, 5 mg/kg
  concentration at time point (concentration-time data, Supplementary Fig. 8): 2.46 and 4.26 and 2.81
[2]; po 5 mg/kg, 2 h, 5 mg/kg
  concentration at time point (concentration-time data, Supplementary Fig. 8): 3.59 and 4.51 and 5.67
[2]; po 5 mg/kg, 3 h, 5 mg/kg
  concentration at time point (concentration-time data, Supplementary Fig. 8): 4.59 and 4.64 and 5.68
[2]; po 5 mg/kg, 4 h, 5 mg/kg
  concentration at time point (concentration-time data, Supplementary Fig. 8): 6.18 and 5.41 and 8.34
[2]; po 5 mg/kg, 6 h, 5 mg/kg
  concentration at time point (concentration-time data, Supplementary Fig. 8): 4.85 and 6.09 and 5.97
[2]; po 5 mg/kg, 8 h, 5 mg/kg
  concentration at time point (concentration-time data, Supplementary Fig. 8): 4.94 and 5.49 and 4.7
[2]; po 5 mg/kg, 24 h
  concentration at time point (concentration-time data, Supplementary Fig. 8): 0
